From US20250134913A1, “ORAL DOSAGE FORMS OF TRβ AGONIST VK2809 FOR THE TREATMENT OF LIVER DISORDERS AND METHODS OF PREPARING THE SAME” (Viking Therapeutics, Inc., priority 2022, published 2025)
In brackets after ≈: the same amount, converted by molar mass.

Experiments:
Format in all cases: physicochemical
physchem = test: physchem
Procedure: The amorphous solubility of amorphous Compound 1 was determined by slow addition of the API from an organic stock solution into the aqueous medium of interest. When the amorphous solubility was reached, a drug rich phase formed and was measured by detection by scattering of UV/Visible light and/or by dynamic light scattering (DLS).
The solubility of amorphous Compound 1 was evaluated in PBS at pH 6.5 alone and with 0.5% simulated intestinal fluid (SIF). […] The onset of scattering in the SIF containing media occurred after 180-210 μg/mL Compound 1. […] This is consistent with the initial solubility testing where the crystalline solubility in PBS in the absence of bile salts is exceedingly low.

[1] = Equilibrium solubility of crystalline Compound 1 (supernatant concentration after ultracentrifugation); conditions: 37° C.
Text: Experimental values for solubility, listed in Table 2, were obtained by measuring supernatant concentrations after centrifugation at 386,000×g.

[2] = Closed stability packaging study of PVP-VA SDDs by HPLC; conditions: Stored at Room Temp.
Procedure: Chemical stability of PVP-VA-containing SDDs of Compound 1 under closed conditions was evaluated by HPLC using the method provided herein in Table 4.

[3] = Open stability of spray dried dispersions by HPLC; conditions: Stored at Room Temp.
Procedure: The stability samples were tested using H-PLC using the method in Table 4.
The stability samples were tested for assay and related substances. […] This is mainly due to an API process-related impurity.

[4] = Gastric-to-intestinal buffer (G-IB) transfer non-sink dissolution test
Procedure: The SDDs were evaluated in a non-sink dissolution test designed to monitor dissolution rate, as well as inhibition of crystallization, on transfer from simulated gastric to simulated intestinal media. For the gastric-to-intestinal buffer (G-IB) transfer dissolution test, pH 2 (“gastric”; “G”) media was added to each sample at a target dose concentration of 1000 μg Compound 1/mL. After 30 minutes of exposure to gastric media, concentrated simulated intestinal buffer was added to reach a final composition of 0.5% SIF in PBS, pH 6.5 at half the dose concentration (500 μg Compound 1/mL). This dose concentration was selected at twice the estimated amorphous solubility in an attempt to discriminate on dissolution rate and sustainment of supersaturation simultaneously. The concentration was monitored by UV fiber optic probes in situ (stir rate: 100 revolutions per minute) as well as being assessed by either microcentrifugation (15,800×g) or ultracentrifugation (300,000×g). The microcentrifuge separated the precipitate (undissolved drug) and total solubilized drug. Total solubilized drug consists of three solubilized species: freely solubilized drug (“free drug”), drug associated with bile salt micelles (“micelle bound drug”), and drug in small aggregate roughly 50-300 nm in size (“colloidal drug”). The ultracentrifuge further separates the colloidal drug and the supernatant contains only free drug and micelle bound drug. These three species have different activities in vivo and can be used to help differentiate formulations. Free drug is the smallest species and is the only species considered to partition directly into the cell membrane of the epithelium. Micelle bound drug can cross the unstirred mucous boundary layer and source free drug once a concentration gradient has been created by freely solubilized drug being absorbed. Finally, the drug-polymer colloids are a source of rapidly dissolving drug and may, in some cases, penetrate the unstirred mucous boundary layer (Stewart et al. Mol. Pharmaceutics, 2017, 12, 2437-2449)
All SDD formulations containing enteric polymers reached the amorphous solubility in intestinal buffer within 10 minutes. […] The exact reason for this shift is currently unknown. It may be attributable to detector saturation, arising from the undissolved solids, or a specific interaction between the drug and polymer in solution.

[5] = Stability study of tablet formulations; conditions: Stored at Room Temp.
Procedure: Tablet formulations were subjected to a stability study. Tablets were packaged in heat sealed HDPE bottles with minimal headspace and stored in temperature-controlled stability chambers at 50° C., 40° C., and 25° C., and 5° C. Humidity in the chambers was either controlled or allowed to be at ambient humidity. The conditions are listed for each particular formulation in Table 11 below.

[6] = Closed stability packaging study of spray dried dispersions by HPLC; conditions: Stored at Room Temp.
Procedure: Due to the extensive degradation observed after 2 weeks at 40° C./75% RH open, a closed with desiccant condition stability study was initiated for Compound 1 SDDs. Samples were evaluated for stability at 2 weeks, 6 weeks, and 3 months when stored in 4 mL scintillation vials and sealed in 60 cc HDPE bottles with heat induction sealing and 0.5 g desiccant.
Chemical stability of Compound 1 SDDs after 2 weeks under closed conditions was evaluated by HPLC using the method provided herein in Table 4. […] All SDDs containing cellulosic polymers show the same growth of an impurity after 2 weeks at 40/75 closed. Upon closer inspection, this impurity is present in the in-going API at a level that was below the threshold used for integration. […] Further evidence of unknown degradants that may form during manufacture and co-elute with known synthetic impurities was observed. Closed stability degradation data at two weeks is provided in Table 6, while closed stability degradation data at six weeks is provided in Table 7. Additionally, no changes in particle morphology and crystallinity for the SDDs after 6 weeks at 40° C./75% RH were observed.

## Cc1cc(OC[P@@]2(=O)OCC[C@@H](c3cccc(Cl)c3)O2)cc(C)c1Cc1ccc(O)c(C(C)C)c1 [Compound 1]
physchem; 37 °C, pH 6.5, fassif, kinetic from dmso stock
  solubility: 180 to 210 µg/mL (≈ 350 to 408 µM)
physchem; pH 6.5
  Amorphous solubility behaviour: precipitated as soon as the stock solution was introduced to the medium
[1]; 0.01N HCl, 90 min
  Ultracentrifuge Concentration: <0.05 μg Compound 1/mL
[1]; 0.01N HCl, 20 hours
  Ultracentrifuge Concentration: <0.05 μg Compound 1/mL
[1]; 0.5% Simulated intestinal fluid (SIF) in PBS, pH 6.5, 90 min
  Ultracentrifuge Concentration: 92 μg Compound 1/mL
[1]; 0.5% Simulated intestinal fluid (SIF) in PBS, pH 6.5, 20 hours
  Ultracentrifuge Concentration: 87 μg Compound 1/mL
[1]; PBS, pH 6.5, 90 min
  Ultracentrifuge Concentration: <0.05 μg Compound 1/mL
[1]; PBS, pH 6.5, 20 hours
  Ultracentrifuge Concentration: 0.6 μg Compound 1/mL
[2]
  Compound 1 Relative abundance: 97.54%
  Impurities Relative abundance: 2.33%
[3]
  Compound 1 Relative abundance: 97.61%
  Impurities Relative abundance: 2.47%
[4]; 0.5% SIF in PBS pH 6.5, 10 min, microcentrifuge, dose 500 μg/mL
  Concentration, IB 10 min, micro: 39 μg Compound 1/mL
[4]; 0.5% SIF in PBS pH 6.5, 10 min, ultracentrifuge, dose 500 μg/mL
  Concentration, IB 10 min, ultra: 49 μg Compound 1/mL
[4]; 0.5% SIF in PBS pH 6.5, 90 min, microcentrifuge, dose 500 μg/mL
  Concentration, IB 90 min, micro: 88 μg Compound 1/mL
[4]; 0.5% SIF in PBS pH 6.5, 90 min, ultracentrifuge, dose 500 μg/mL
  Concentration, IB 90 min, ultra: 88 μg Compound 1/mL
[4]; gastric media pH 2, 20 min, microcentrifuge, dose 1000 μg/mL
  Concentration, G 20 min, micro: 0 μg Compound 1/mL
[5]; 2 month analysis
  Compound 1 Relative abundance: 97.22%
  Impurities Relative abundance: 2.78%
[5]; 3 month analysis
  Compound 1 Relative abundance: 97.45%
  Impurities Relative abundance: 2.55%
[6]; 2 week analysis
  Compound 1 Relative abundance: 97.07%
  Impurities Relative abundance: 2.95%
[6]; 6 week analysis
  Compound 1 Relative abundance: 97.70%
  Impurities Relative abundance: 2.33%
